Test results published in patent US20080089910A1, “Attenuated Herpes Simplex Virus Type-2, Vectors Thereof and Immunogenic Compositions Thereof” (priority 2004, published 2008).

Columns and labels:
Assay in all cases: Viral plaque reduction assay, sensitivity to acyclovir
Format in all cases: cell-based, herpes simplex virus type 2
HSV-2 186 = conditions: Human alphaherpesvirus 2; HSV-2 186 on Vero cells, plaques after 72 hours; read-out: IC50 (50% inhibitory concentration) of acyclovir
Protocol: (§1) Each of the viruses were plated on Vero cell monolayers in the presence of various concentrations (0-16 μM) of acyclovir. Plaques that formed after 72 hours post infection were counted and the data was used to generate the IC50 of ACV for each virus.
(§2) Plaque reduction assay. Plaque reduction assay was used as described previously (Visalli et al., 2003) with the following modifications. Vero cells were infected with approximately 50 to 100 PFU of virus per well. Acyclovir (ACV) was diluted to the desired concentrations in Dulbecco's Modified Eagle Medium (DMEM) and applied to uninfected Vero monolayers for a thirty minute pre-incubation before the addition of virus. Positive control wells received virus without ACV. Monolayers were incubated for three days at 37° C., fixed, and stained. Plaques were counted, and the data are presented as the mean of at least three independent assays.

UL24Δ = conditions: Human alphaherpesvirus 2; UL24Δ on Vero cells, plaques after 72 hours; read-out: IC50 (50% inhibitory concentration) of acyclovir
Protocol: as §1, §2

UL24R = conditions: Human alphaherpesvirus 2; UL24R on Vero cells, plaques after 72 hours; read-out: IC50 (50% inhibitory concentration) of acyclovir
Protocol: as §1, §2

Measured: IC50

Nc1nc2c(ncn2COCCO)c(=O)[nH]1 [acyclovir]
~3 µM: all assays above
